The structures appear in SMILES notation.

The source of these data is patent publication US5688789A, “PCP receptor ligands and the use thereof” (State of Oregon, acting by and through the Oregon State …, priority 1995, dated 1997).

In test [1] the target is PCP receptor. The experiment in a line: PCP receptor affinity of IDDC analogs vs. [3H]MK-801 in rat brain membrane (Example 10, Table 2). Particulars: read-out: PCP Receptor Affinity IC50 in Rat Brain Membrane vs. [3H]MK-801, MEAN.
The subject of test [2] is NMDA receptor-ion channel complex. The experiment in a line: Whole-cell patch clamp: block of NMDA-induced currents on cultured rat hippocampal neurons (Example 6). It is filed as cell-based. Particulars: for inward current on serial applications with NMDA: 10 uM compound with NMDA; for recovery from inhibition of NMDA current: after 10 uM compound. As to the method:
In the electrophysiological studies the compounds are evaluated with respect to their ability to block the ion channel of the NMDA receptor channel complex and thereby inhibit Ca^2+ and Na^+ ion flow into the nerve cell. Initially, the ion channels are opened by activating the NMDA receptor. Ion flow is determined by measuring the passage of electrical current, i.e., a use-dependent decrease in electrical current indicates blocking of the ion channel due to binding of a ligand at a site within the channel.
Hippocampal neurons were obtained from the CA1 region of the hippocampus from 1-3 day-old-newborn rats (Long-Evans). Small blocks of tissue ([…]1mm^3) were incubated in papain (20 units ml^-1; Worthington-Cooper) for 30 minutes. The tissue was dissociated into a single cell suspension by trituration with a fire-polished Pasteur pipette in complete growth medium (Earle's MEM, 20 mM glucose, 50 units/ml penicillin/streptomycin, 5% heat-inactivated fetal calf serum, Serum Extender from Collaborative Research) containing 2.5 mg/ml bovine serum albumin and 2.5 mg/ml trypsin inhibitor (Sigma). The cells were plated onto glass coverslips coated with collagen/poly-D-lysine. Cultures were fed every 3 days by replacing haft the volume of medium. Arabinosylcytosine (5×10^-6 M) was added to the cultures for 1 or 2 days during the first week after plating to suppress the proliferation of non-neuronal cells.
All electrophysiology experiments were performed with the whole-cell mode of patch clamp recording [Hamill, O. D., Marty, A., Neher, E., Sakman, B., and Sigworth, F. J., Pflugers Arch. 391:85-100 (1981)] from neurons grown for 1-3 weeks in culture. Agonists and agonist/antagonist combinations were applied by a U-tube mol (Fenwick et al, J. Physiol. 331:577-597 (1982)) to neurons in whole-cell experiments. The external solution contained (in mM) NaCl 140, KCl 3.5, CaCl2 1, glucose 5, picrotoxinin 0.02, tetrodotoxin (TTX) 5×10^-4, and N-2-hydroxyethyl-piperazine-N'-2-ethanesulfonic acid (HEPES) 10. The pH of this solution was adjusted to 7.4 with NaOH. The internal (patch electrode) solution contained (mM) Cs-methanesulfonate 120, CsCl 10, ethyleneglycol-bis-(β-aminoethylether)-N,N,N',N'-tetraacetic acid (EGTA) 10, HEPES 10 (pH adjusted to 7.0 with CsOH). Membrane current was filtered at 4000 Hz (-3dB; 8-pole Bessel) and recorded on magnetic tape for later analysis. Experiments were performed at room temperature (20°-25° C.). [Sources of chemicals: N-methyl-D-aspartate, Cambridge Research Biochemicals; pirotoxinin, Sigma Chemical Company; salts for recording solutions, Aldrich (Gold Label) or Alfa (Puratronic). [^3 H]Kainate and [3H]CPP and [^3 H]AMPA were purchased from Dupont/NEN (Boston, Mass.)].
Repetitive applications (every 30 s) to the same cell produced currents which varied less than 5% over a period of at least 30 minutes.

Test [3] deals with PCP receptor. Nature of the test: PCP receptor binding against 3H-MK-801 (Example 5, Table 1). The settings on record: for IC50: vs. 3H-MK-801, ± sem (n). As to the method:
The PCP receptor binding properties of various compounds of the invention against ^3 H-5-methyl-10,11-dihydro-5H-dibenzo[a,d]cycloheptene-5,10-imine (^3 H-MK-801) were determined.

For `Clc1ccc2c(c1)C1CNC(C2)c2ccccc21` (single isomer, unassigned; (-)) [(-)-3-Chloro-IDDC, (-)-3-Chloro-5-(iminomethano)-10,11-dihydro-5H-dibenzo-[a,d]cycloheptene], on PCP receptor [1], the 50% inhibitory concentration (IC50) worked out at 110 nM.
Consider `COc1ccc2c(c1)C1CNC2Cc2ccc(Cl)cc21` (racemic) [(±)-3-Cl-7-OMe-IDDC, 3-chloro-7-methoxy-5-(iminomethano)-10,11-dihydro-5H-dibenzo[a,d]cycloheptene], for which the half-maximal inhibitory concentration (IC50) on PCP receptor [1] was found to be 113 nM.
As for `Clc1ccc2c(c1)C1CNC(C2)c2ccccc21` (single isomer, unassigned; (+)) [(+)-3-Chloro-IDDC, (+) 3-Chloro-5-(iminomethano)-10,11-dihydro-5H-dibenzo-[a,d]cycloheptene], the IC50 on PCP receptor [1] was determined as 14 nM.
Turning to `Clc1ccc2c(c1)C1CNC(C2)c2ccccc21` (racemic) [(±)-3-Cl-IDDC], the IC50 on PCP receptor [1] worked out at 64.2 nM.
Consider `Fc1ccc2c(c1)C1CNC(C2)c2ccccc21` (single isomer, unassigned; (+)) [(+)-3-Fluoro-IDDC, (+)-3-fluoro-5-(iminomethano)-10,11-dihydro-5H-dibenzo-[a,d]cycloheptene], for which, at PCP receptor [1], the IC50 came out at 18 nM.
On to `Fc1ccc2c(c1)C1CNC(C2)c2ccccc21` (racemic) [(±)-3-F-IDDC], for which the IC50 at PCP receptor [1] was determined as 29.4 nM.
`Brc1ccc2c(c1)C1CNC(C2)c2ccccc21` (racemic) [(±)-3-Br-IDDC, 3-bromo-5-(iminomethano)-10,11-dihydro-5H-dibenzo-[a,d]cycloheptene]: the concentration for half-maximal inhibition (IC50) at PCP receptor [1] was found to be 41 nM.
As to `CN1C[C@H]2c3ccccc3C[C@@H]1c1ccccc12` [(+)-N--Me-IDDC, N-methyl-10,5-(iminomethano)-10,11-dihydro-5H-dibenzo[a,d]cycloheptene], the concentration for half-maximal inhibition (IC50) on PCP receptor [1] was found to be 65.4 nM. For the same molecule, in test [2], the “inward current on serial applications with NMDA” value is “Serial applications evoked progressively smaller currents” and the “recovery from inhibition of NMDA current” value is given as “reversed only with prolonged or repeated application of NMDA”. Also, the “rate of recovery from blockade compared with MK-801” value in test [2] (10 uM, relative to MK-801) is on record as “somewhat more rapid than the rate of recovery of responses following MK-801”. Besides, the “inhibition of NMDA current” value in test [2] (10 uM, 50 uM NMDA + 1 uM glycine, -60 mV) was “inhibited the NMDA current in a use-dependent and voltage-dependent manner”. Also, in the test on PCP receptor [3] (relative to MK-801), the “affinity for the PCP receptor compared with MK-801” value is “lower affinity than MK-801 for the PCP receptor”. On PCP receptor [3], the half-inhibitory concentration (IC50) is 800 ± 9 nM.
As to `CC12NC(Cc3ccccc31)c1ccccc12` (single isomer, unassigned) [MK-801, 5-methyl-10,11-dihydro-5H-dibenzo[a,d]cycloheptene-5,10-imine, reference compound], in test [2], the “inward current on serial applications with NMDA” value is on record as “the inward current became progressively smaller with serial applications”; the “recovery from inhibition of NMDA current” value is “required repeated applications of NMDA alone and was speeded by holding the membrane potential at positive voltages”.
As for `Ic1ccc2c(c1)C1CNC(C2)c2ccccc21` (racemic) [(±)-3-Iodo-IDDC, 3-iodo-5-(iminomethano)-10,11-dihydro-5H-dibenzo-[a,d]cycloheptene], on PCP receptor [1], the half-inhibitory concentration (IC50) was 160 nM.
Same read-out and setting: the value for `COc1ccc2c(c1)C1CN(C)C2Cc2ccc(Br)cc21` (racemic) [(±)-3-Br-7-OMe--N--Me-IDDC, 3-Bromo-7-methoxy-N-methyl-5-(iminomethano)-10,11-dihydro-5H-dibenzo[a,d]cycloheptene] was 643 nM; that for `CN1CC2c3cc(Br)ccc3CC1c1ccccc12` (racemic) [(±)-3-Br--N--Me-IDDC, 3-bromo-N-methyl-5-(iminomethano)-10,11-dihydro-5H-dibenzo[a,d]cycloheptene] was 1040 nM.
For the molecule `COc1ccc2c(c1)C1CNC2Cc2ccccc21` (racemic) [(±)-7-OMe-IDDC, 7-Methoxy-5-(iminomethano)-10,11-dihydro-5H-dibenzo-[a,d]cycloheptene], the IC50 at PCP receptor [1] was found to be 332 nM.
With `Clc1ccc2c(c1)C1CNC2Cc2ccccc21` (racemic) [(±)-7-Cl-IDDC, 7-Chloro-5-(iminomethano)-10,11-dihydro-5H-dibenzo-[a,d]cycloheptene], the half-maximal inhibitory concentration (IC50) at PCP receptor [1] was found to be 690 nM.
Turning to `CN[C@H](CC(=O)O)C(=O)O` [NMDA, N-methyl-D-aspartate, reference compound], in test [2] (50 uM NMDA + 1 uM glycine, three second applications, -60 mV), the inward whole-cell current is reported as 100-1000 pA.
Consider `COc1ccc2c(c1)C1CNC2Cc2ccc(Br)cc21` (racemic) [(±)-3-Br-7-OMe-IDDC, 3-bromo-7-methoxy-5-(iminomethano)-10,11-dihydro-5H-dibenzo[a,d]cycloheptene], for which the IC50 on PCP receptor [1] is 114 nM.
Consider `CC12CNC(Cc3ccccc31)c1ccccc12` (racemic) [(±)-5-Me-IDDC, 5-methyl-10,5-(iminomethano)-10,11-dihydro-5H-dibenzo[a,d]cycloheptene], for which the concentration for half-maximal inhibition (IC50) worked out at 119 nM on PCP receptor [1] and 125 nM on PCP receptor [3].
Consider `COc1ccc2c(c1)C1CNC(C2)c2ccccc21` (racemic) [(±)-3-OMe-IDDC, 3-methoxy-5-(iminomethano)-10,11-dihydro-5H-dibenzo-[a,d]cycloheptane], for which, at PCP receptor [1], the IC50 turned out to be 168 nM.
Same read-out and setting: the value for `Nc1ccc2c(c1)C1CNC(C2)c2ccccc21` (racemic) [(±)-3-NH2-IDDC, 3-amino-5-(iminomethano)-10,11-dihydro-5H-dibenzo[a,d]cycloheptene] was 486 nM.
